# Measured values as given in US20070274946A1, “Tolerance to Graft Prior to Thymic Reactivation” (Norwood Immunoloty, Ltd., priority 1999, published 2007).
# Experiments:
# [1] = IL-7 administration with or without castration after allogeneic HSCT, thymic cellularity; format: in vivo, mice
# Text: Male C57BL/6J (B6, H-2b), C3FeB6F1/J([B6 3 C3H]F1; H-2b/k), B10.BR (H-2k), B6D2F1/J (H-2b/d), CBA/J (H-2k), Balb/c (H2-d), IL7−/− and KGF−/− mice were obtained from the Jackson Laboratory (Bar Harbor, Maine) and used in experiments when they were between 8 and 12 weeks of age. KGF−/− and IL7−/− were used between 4 and 7 months of age. HSCT protocols were approved by the Memorial Sloan-Kettering Cancer Center Institutional Animal Care and Use Committee. The BM cells were removed aseptically from femurs and tibias. Donor BM was depleted of T cells by incubation with anti-Thy-1.2 for 30 minutes at 4° C. followed by incubation with Low-TOX-M rabbit complement (Cedarlane Laboratories, Hornby, ON, Canada) for 1 hour at 37° C. Splenic T cells (for GVHD analysis) were obtained by purification over a nylon wool column followed by red cell removal with ammonium chloride red cell lysis buffer. Cells (5×10^6 BM cells with or without splenic T cells and leukemia cells) were resuspended in Dulbecco modified essential medium (Life Technologies, Grand Island, N.Y.) and transplanted by tail vein infusion (0.25 mL total volume) into lethally irradiated recipients on day 0. Prior to transplantation, on day 0, recipients received 1300 cGy total body irradiation (^137Cs source) as split dose with 3 hours between doses (to reduce gastrointestinal toxicity). Mice were housed in sterilized microisolator cages and received normal chow and autoclaved hyperchlorinated drinking water (pH 3.0).
# IL-7 were either given from days 0 to 13 or 21 to 27 intraperitoneally at 10 μg/day for immune reconstitution studies. PBS was injected into control mice at the same time points.
# BM cells, splenocytes or thymocytes were washed in FACS buffer (phosphate buffered saline (PBS)/2% bovine serum albumin (BSA)/0.1% azide) and 1-3×10^6 cells were incubated for 30 minutes at 4° C. with CD16/CD32 FcR block. Cells were then incubated for 30 minutes at 4° C. with primary antibodies and washed twice with FACS buffer. Where necessary, cells were incubated with conjugated Streptavidin for a further 30 minutes at 4° C. The stained cells were resuspended in FACS buffer and analyzed on a FACSCalibur™ flow cytometer (Becton Dickinson, San Jose, Calif.) with CellQuest™ software.
# [2] = tested on: IL-7-dependent murine pre-B cell line 2E8; assay: Thymidine incorporation proliferation assay with IL-7-dependent cell line; format: cell-based; settings: 2E8 cells
# Experimental: Tissue culture medium consisted of RPMI 1640 supplemented with 10% heat inactivated fetal calf serum, 100 U/mL penicillin, […] streptomycin, and 2 mM L-glutamine (as well as […] 2-mercaptoethanol for the culture of 32Dp210 cells and proliferation assays).
# [3] = Chemical castration versus surgical castration after cyclophosphamide T cell depletion; format: in vivo, mice
# Text: FIG. 9: Changes in thymus (open bars), spleen (gray bars) and lymph node (black bars) cell numbers following treatment with cyclophosphamide, a chemotherapy agent, and surgical or chemical castration performed on the same day. Note the rapid expansion of the thymus in castrated animals when compared to the non-castrate (cyclophosphamide alone) group at 1 and 2 weeks post-treatment. In addition, spleen and lymph node numbers of the castrate group were well increased compared to the cyclophosphamide alone group. (n=3-4 per treatment group and time point).
# Old mice (e.g., 2 years old) were injected with cyclophosphamide (200 mg/kg body wt over two days) and castrated.
# FIG. 9 illustrates the use of chemical castration compared to surgical castration in enhancement of T cell regeneration. […] The enhancing effects were equivalent on thymic expansion and also the recovery of spleen and lymph node. The kinetics of chemical castration are slower than surgical, that is, mice take about 3 weeks longer to decrease their circulating sex steroid levels. However, chemical castration is still as effective as surgical castration and can be considered to have an equivalent effect.
# [4] = Chemical castration of aged female Balb/cJ mice, radioimmunoassay of plasma sex steroids; format: in vivo; settings: 10 mg/kg s.c., 1 month slow release formulation
# Experimental: To do this, aged (i.e., 2 year old) female Balb/cJ (H-2d) mice are either surgically castrated (e.g., by removing the ovaries according to standard methods), or are chemically castrated. For chemical castration, mice are injected subcutaneously with 10 mg/kg Lupron (a GnRH agonist) as a 1 month slow release formulation. Alternatively mice are injected with a GnRH antagonist (e.g., Cetrorelix or Abarelix). Confirmation of loss of sex steroids is performed by standard radioimmunoassay of plasma samples following manufacturer's instructions, and may be monitored throughout the procedure.
# [5] = Sex steroid ablation therapy of the patient with an LHRH agonist (Example 6); format: in vivo, human; settings: single dose effective for 3 months
# Experimental: The patient was given sex steroid ablation therapy in the form of delivery of an LHRH agonist. This was given in the form of either Leucrin (depot injection; 22.5 mg) or Zoladex® (implant; 10.8 mg), either one as a single dose effective for 3 months. […] In some cases it is also necessary to deliver a suppresser of adrenal gland production of sex steroids. Cosudex® (5 mg/day or 50 mg/day) may also be given as one tablet per day for the duration of the sex steroid ablation therapy. Alternatively, the patient is given a GnRH antagonist, e.g., Cetrorelix or Abarelix as a subcutaneous injection
# [6] = chronic administration; cited from earlier work
compound,measurement,setting,value
IL-7: Recombinant human IL-7 provided by Cytheris,"thymic cellularity, combined treatment (castration and IL-7)",[1]; day 14 after allo-HSCT,significantly more cells
same,"thymic cellularity, IL-7 treated sham-castrated versus PBS treated sham-castrated","[1]; day 14 after allo-HSCT, 10 ug/day i.p. days 0-13",no difference
same,effect of IL-7 treatment combined with castration on thymic cellularity,[1]; day 28 after allo-HSCT,additive effect
same,"thymic cellularity, IL-7 alone group versus control group",[1]; day 28 after allo-HSCT,significantly higher
same,proliferative effect on murine cells,[2],equal to murine IL-7
CCNC(=O)[C@@H]1CCCN1C(=O)[C@H](CCCN=C(N)N)NC(=O)[C@H](CC(C)C)NC(=O)[C@@H](Cc1c[nH]c2ccccc12)NC(=O)[C@H](Cc1ccc(O)cc1)NC(=O)[C@H](CO)NC(=O)[C@H](Cc1c[nH]c2ccccc12)NC(=O)[C@H](Cc1cnc[nH]1)NC(=O)[C@@H]1CCC(=O)N1 [Deslorelin],additional time to decrease circulating sex steroid levels versus surgical castration,[3]; chemical castration,about 3 weeks
same,rate of regeneration post-cyclophosphamide treatment compared to surgical castration,"[3]; injected for four weeks, T cell regeneration",comparable rate of regeneration
same,enhancing effects on thymic expansion and recovery of spleen and lymph node versus surgical castration,[3]; post-cyclophosphamide,equivalent
"CCNC(=O)[C@@H]1CCCN1C(=O)[C@H](CCCNC(=N)N)NC(=O)[C@H](CC(C)C)NC(=O)[C@@H](CC(C)C)NC(=O)[C@H](Cc1ccc(O)cc1)NC(=O)[C@H](CO)NC(=O)[C@H](Cc1c[nH]c2ccccc12)NC(=O)[C@H](Cc1c[nH]cn1)NC(=O)[C@@H]1CCC(=O)N1 [Lupron, leuprolide acetate]",time post injection to castrate levels (<0.5 ng estrogen/ml),[4],3-4 weeks
"CC(C)C[C@H](NC(=O)[C@@H](COC(C)(C)C)NC(=O)[C@H](Cc1ccc(O)cc1)NC(=O)[C@H](CO)NC(=O)[C@H](Cc1c[nH]c2ccccc12)NC(=O)[C@H](Cc1cnc[nH]1)NC(=O)[C@@H]1CCC(=O)N1)C(=O)N[C@@H](CCCNC(=N)N)C(=O)N1CCC[C@H]1C(=O)NNC(N)=O [Zoladex, goserelin acetate]",reduction of sex steroid levels,[5],effective in reducing sex steroid levels sufficiently to reactivate the thymus
same,serum testosterone levels in males,[6],a range normally seen in surgically castrated men
same,time to sustained suppression of pituitary LH after initiation of therapy,[6],approximately three
